Earlier results on two compounds are cited in US20070105793A1, “Compositions and methods using nicotinic acid for treatment of hypercholesterolemia, hyperlipidemia nd cardiovascular disease” (priority 2005, published 2007).

The conditions of data set [1]: after ingestion.
For data set [2] the following is noted: in vivo.
Another data set has as its system β-thromboglobulin. To be noted: in vivo.

`O=C(O[C@H]1[C@H](OC(=O)c2cccnc2)[C@@H](OC(=O)c2cccnc2)[C@H](OC(=O)c2cccnc2)[C@@H](OC(=O)c2cccnc2)[C@H]1OC(=O)c1cccnc1)c1cccnc1` [IHN, inositol hexanicotinate]: in data set [1], the “time of release of niacin into the system by hydrolysis” value is given as “around 10 hours”. In data set [2], the flush entry is on record as ““zero” flush” and the “impact on blood sugar” value is on record as “no negative impact on blood sugar”.
For `O=C(O)c1cccnc1` [niacin, nicotinic acid], the “effect on β-thromboglobulin” value with β-thromboglobulin is listed as “does not have a favorable effect on β-thromboglobulin”.
